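Test compounds were applied to cells in 96-well plates for 48 hours at 5 doses. The concentration for 50% growth inhibition is given as GI50.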 Active and inactive are the calls of the source. No stated cut-off is given here; in the data, active = GI50 up to about 1.1 µM and inactive = higher.
How the values were obtained:
Test in all cases: growth of human tumour cells (NCI), 48 h
A498 = test system: A498
A549 = test system: A549
CCRF-CEM = test system: CCRF-CEM
COLO 205 = test system: COLO 205
EKVX = test system: EKVX
HCC 2998 = test system: HCC 2998
HCT-15 = test system: HCT-15
HOP-62 = test system: HOP-62
LOX IMVI = test system: LOX IMVI
MOLT-4 = test system: MOLT-4
Malme-3M = test system: Malme-3M
OVCAR-5 = test system: OVCAR-5
RPMI-8226 = test system: RPMI-8226
SF-268 = test system: SF-268
SK-MEL-2 = test system: SK-MEL-2
SK-OV-3 = test system: SK-OV-3
SW-620 = test system: SW-620
TK-10 = test system: TK-10
U-251 = test system: U-251
UO-31 = test system: UO-31

Row | Structure (SMILES) | GI50 (A498) | GI50 (A549) | GI50 (CCRF-CEM) | GI50 (COLO 205) | GI50 (EKVX) | GI50 (HCC 2998) | GI50 (HCT-15) [µM] | GI50 (HOP-62) | GI50 (LOX IMVI) | GI50 (MOLT-4) | GI50 (Malme-3M) | GI50 (OVCAR-5) | GI50 (RPMI-8226) | GI50 (SF-268) | GI50 (SK-MEL-2) | GI50 (SK-OV-3) | GI50 (SW-620) | GI50 (TK-10) | GI50 (U-251) | GI50 (UO-31)
1 | CN1C(=O)C2C=C3CCCCC3=CC2N(C)C1=O (centres undefined) | > 100 µM (inactive) | > 100 µM (inactive) | > 100 µM (inactive) | > 100 µM (inactive) | 77.4 µM (inactive) | > 100 µM (inactive) | > 100 | > 100 µM (inactive) | > 100 µM (inactive) | > 100 µM (inactive) | > 100 µM (inactive) | > 100 µM (inactive) | > 100 µM (inactive) | > 100 µM (inactive) | > 100 µM (inactive) | > 100 µM (inactive) | > 100 µM (inactive) | > 100 µM (inactive) | > 100 µM (inactive) | > 100 µM (inactive)
2 | O=C1CSC2(CC(/C=C/c3cccc([N+](=O)[O-])c3)=NN2c2cccc(S(=O)(=O)O)c2)N1c1nc2ccccc2s1 (centres undefined) | 20.4 µM (inactive) | 25.8 µM (inactive) | 20.7 µM (inactive) | 50.8 µM (inactive) | 44.8 µM (inactive) | 35.6 µM (inactive) | 18.1 |  | 13.6 µM (inactive) | 22.4 µM (inactive) | 51.3 µM (inactive) | 23.4 µM (inactive) | 17.4 µM (inactive) | 26 µM (inactive) | 22.9 µM (inactive) |  | 26.8 µM (inactive) | 20 µM (inactive) | 17.6 µM (inactive) | 19.6 µM (inactive)
3 | COc1ccc(-c2c(-c3ccccc3)c(C)nc3nc(SC)nc(SC)c23)cc1OC | 15.7 µM (inactive) | 1.4 µM (inactive) | 4.26 µM (inactive) | 11.6 µM (inactive) | 15.6 µM (inactive) | 25 µM (inactive) | 8.2 | 9.08 µM (inactive) | 11.4 µM (inactive) | 5.81 µM (inactive) | 10.1 µM (inactive) | 12.4 µM (inactive) | 2.82 µM (inactive) | 24 µM (inactive) | 17.1 µM (inactive) | 3.72 µM (inactive) | 6.32 µM (inactive) | 23.6 µM (inactive) | 9.1 µM (inactive) | 3.79 µM (inactive)
4 | Cc1ccc(S(=O)(=O)C2=Cc3ccc(C(F)(F)F)cc3C2(O)c2cccc(C(F)(F)F)c2)cc1 (centres undefined) | 2 µM (inactive) | 2.99 µM (inactive) | 2.56 µM (inactive) | 1.79 µM (inactive) | 2.87 µM (inactive) | 2.43 µM (inactive) | 1.95 | 7.35 µM (inactive) | 1.91 µM (inactive) | 2.5 µM (inactive) | 2.02 µM (inactive) | 2.08 µM (inactive) | 2.65 µM (inactive) | 2.39 µM (inactive) | 1.82 µM (inactive) | 10.2 µM (inactive) | 1.85 µM (inactive) | 2.47 µM (inactive) | 1.87 µM (inactive) | 2.25 µM (inactive)
5 | Nc1nccc2c1ncn2[C@H]1C[C@H](O)[C@@H](CO)O1 | > 100 µM (inactive) |  | > 100 µM (inactive) | > 100 µM (inactive) |  | > 100 µM (inactive) | > 100 | > 100 µM (inactive) | > 100 µM (inactive) | > 100 µM (inactive) | > 100 µM (inactive) | > 100 µM (inactive) | > 100 µM (inactive) |  | > 100 µM (inactive) | > 100 µM (inactive) | > 100 µM (inactive) | > 100 µM (inactive) | > 100 µM (inactive) | > 100 µM (inactive)
6 | O=S(=O)(N/C(=N\O)Nc1ccc(Cl)cc1)c1ccccc1 | 6.67 µM (inactive) | 21.2 µM (inactive) | 33.9 µM (inactive) | 20.4 µM (inactive) | 10.3 µM (inactive) | 7.1 µM (inactive) | 7.66 | 44.8 µM (inactive) | 13.4 µM (inactive) | 3.23 µM (inactive) | 4.34 µM (inactive) | 14.5 µM (inactive) | 4.13 µM (inactive) | 10.8 µM (inactive) | 11.6 µM (inactive) | 27.9 µM (inactive) | 10 µM (inactive) | 14 µM (inactive) | 19.5 µM (inactive) | 3.23 µM (inactive)
7 | Cn1c2ncccc2n2c(=O)cc(O)cc12 | 64.7 µM (inactive) | > 100 µM (inactive) | > 100 µM (inactive) | 53 µM (inactive) | 86.1 µM (inactive) | 39.4 µM (inactive) | 48 | 39.4 µM (inactive) | 53.6 µM (inactive) | 20.7 µM (inactive) | 33.6 µM (inactive) | 88.3 µM (inactive) | > 100 µM (inactive) | 54.2 µM (inactive) | 39.6 µM (inactive) | > 100 µM (inactive) | 82.4 µM (inactive) | 45 µM (inactive) | > 100 µM (inactive) | 47.2 µM (inactive)
8 | COC(=O)C1=COC2OC3CC1C2C(C)O3 (centres undefined) | > 100 µM (inactive) | > 100 µM (inactive) | > 100 µM (inactive) | > 100 µM (inactive) | > 100 µM (inactive) | > 100 µM (inactive) | > 100 | > 100 µM (inactive) | > 100 µM (inactive) | > 100 µM (inactive) | > 100 µM (inactive) | > 100 µM (inactive) | > 100 µM (inactive) | > 100 µM (inactive) | > 100 µM (inactive) | > 100 µM (inactive) | > 100 µM (inactive) | > 100 µM (inactive) | > 100 µM (inactive) | > 100 µM (inactive)
9 | COc1cc2c3c(c4ccc(O)cc4c2cc1OC)[C@@H](O)[C@@H]1CCCN1C3 | < 0.001 µM (active) | < 0.001 µM (active) | < 0.001 µM (active) | 0.0178 µM (active) | < 0.001 µM (active) | < 0.001 µM (active) | < 0.001 | < 0.001 µM (active) | < 0.001 µM (active) | < 0.001 µM (active) | < 0.001 µM (active) | < 0.001 µM (active) | < 0.001 µM (active) | < 0.001 µM (active) | < 0.001 µM (active) | 0.00105 µM (active) | < 0.001 µM (active) | 0.00106 µM (active) | < 0.001 µM (active) | < 0.001 µM (active)
10 | CC1(C)CCC[C@]2(C)[C@@H](C=O)C(C=O)=CC[C@@H]12 [POLYGODIAL] | 40.9 µM (inactive) | 37.5 µM (inactive) | 20.3 µM (inactive) | 18.2 µM (inactive) | 24.8 µM (inactive) | 18.4 µM (inactive) | 17 | 30.6 µM (inactive) | 19.1 µM (inactive) | 9.33 µM (inactive) | 15.2 µM (inactive) | 16.4 µM (inactive) | 10.7 µM (inactive) | 15.3 µM (inactive) | 18.1 µM (inactive) | 30.8 µM (inactive) | 35.4 µM (inactive) | 25.9 µM (inactive) | 19 µM (inactive) | 16.4 µM (inactive)
11 | N#C/C(=C\c1ccc(C(O)P(=O)(O)O)cc1)C(N)=O (centres undefined) | > 100 µM (inactive) | > 100 µM (inactive) | 9.93 µM (inactive) | > 100 µM (inactive) | > 100 µM (inactive) | 3.66 µM (inactive) | > 100 | 73.3 µM (inactive) | > 100 µM (inactive) | 24.9 µM (inactive) | > 100 µM (inactive) |  | > 100 µM (inactive) | > 100 µM (inactive) | > 100 µM (inactive) | > 100 µM (inactive) | > 100 µM (inactive) | > 100 µM (inactive) | 60.5 µM (inactive) | > 100 µM (inactive)

Reference: ChEMBL document CHEMBL1201862, “PubChem BioAssay data set” (2004)
